This note sets out measurements from patent publication US8637079B2, “Solid preparation comprising alogliptin and pioglitazone” (Takeda Pharmaceutical Company Limited, priority 2007, dated 2014).

This data set can be described thus: Chemical stability on storage: amount of benzoic acid remaining as compound (IA). The data set is classed as physicochemical. How it is done:
Compound (IA) (50 mg) of Comparative Example 1, the mixture (99.59 mg) of Comparative Example 2, and tablets of Example 1 and Example 2 were preserved in glass bottles at 40° C., 75% RH with opened cap or at 60° C. with closed cap and the amount of benzoic acid remaining as compound (IA) was measured to evaluate the chemical stability.

For `Cn1c(=O)cc(N2CCC[C@@H](N)C2)n(Cc2ccccc2C#N)c1=O` [Comparative Example 1, 2-[[6-[(3R)-3-amino-1-piperidinyl]-3,4-dihydro-3-methyl-2,4-dioxo-1(2H)-pyrimidinyl]methyl]-benzonitrile], the residual benzoic acid reads like this: (40° C., 75% RH, opened bottle, 2 week storage product) 99.2%; (60° C., closed bottle, 2 week storage product) 99.0%; (Initial) 99.8%.
